Measured values published in PMC7806260, “A gustatory receptor tuned to the steroid plant hormone brassinolide in Plutella xylostella (Lepidoptera: Plutellidae)” (eLife, 2020).

Molecular target: T1, PxylGr34 (Plutella xylostella, UniProt A0ABQ7Q355)
T1 construct: gene JYU34_016516; no tag or co-receptor stated
T1 sequence (A0ABQ7Q355 1-418): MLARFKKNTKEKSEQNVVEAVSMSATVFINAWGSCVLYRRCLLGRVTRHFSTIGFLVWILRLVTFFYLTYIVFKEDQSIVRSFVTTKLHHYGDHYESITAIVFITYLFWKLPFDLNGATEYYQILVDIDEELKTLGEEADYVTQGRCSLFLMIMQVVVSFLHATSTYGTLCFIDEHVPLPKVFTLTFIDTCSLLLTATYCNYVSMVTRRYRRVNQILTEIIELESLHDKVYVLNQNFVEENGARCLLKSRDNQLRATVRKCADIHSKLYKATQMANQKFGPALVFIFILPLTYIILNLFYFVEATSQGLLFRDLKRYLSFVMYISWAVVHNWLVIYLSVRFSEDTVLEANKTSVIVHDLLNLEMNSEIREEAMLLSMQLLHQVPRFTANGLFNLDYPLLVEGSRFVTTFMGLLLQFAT
Experiment: two-electrode voltage clamp, Xenopus oocytes
Format: cell-based
Conditions: inward current, agonist at 10^-4 M, pH 7.5, holding potential -80 mV

Structure (SMILES)	two-electrode voltage clamp, Xenopus oocytes	two-electrode voltage clamp, Xenopus oocytes (dose series recorded)
C=CCN=C=S [Allyl isothiocyanate]	Oocytes expressing PxylGr34 showed weak responses to methyl jasmonate and allyl isothiocyanate	–
CC(C)[C@H](C)[C@@H](O)[C@H](O)[C@@H](C)[C@H]1CC[C@H]2[C@@H]3COC(=O)[C@H]4C[C@H](O)[C@H](O)C[C@]4(C)[C@H]3CC[C@]12C [Brassinolide]	–	BL induced a strong response in the oocytes expressing PxylGr34
CC/C=C\C[C@H]1C(=O)CC[C@@H]1CC(=O)OC [Methyl jasmonate]	Oocytes expressing PxylGr34 showed weak responses to methyl jasmonate and allyl isothiocyanate	–
